Calls of active or inactive are those of the source. The calls are words filed in the database; no cut-off is given here.
Key:
[1] = tested on: Pseudomonas aeruginosa; assay: Antibacterial activity against Pseudomonas aeruginosa; format: functional, organism-based
[2] = tested on: Escherichia coli; assay: Antibacterial activity against Escherichia coli; format: functional, organism-based
[3] = tested on: P388; assay: Cytotoxicity against mouse P388 cells; format: functional, cell-based
[4] = tested on: Bacillus subtilis; assay: Antibacterial activity against Bacillus subtilis; format: functional, organism-based
[5] = tested on: Candida albicans; assay: Antifungal activity against Candida albicans; format: functional, organism-based

Structure (SMILES) | Activity [1] | Activity [2] | IC50 [3] [µM] | Activity [4] | Activity [5] | Activity [3]
NCCc1ccc(O)c(Br)c1 | inactive | inactive | 46 | inactive | inactive | –
Cn1c(=N)c2nc[nH]c2n(C)c1=O | inactive | inactive | – | inactive | inactive | inactive
